Laboratory results as given in patent US10987359B2, “Oxadiazepinone derivatives and methods of treating hepatitis B infections” (priority 2016, dated 2021).

These compounds were tested on HBV (assay: HBV replication inhibition assay (BDNA assay) in HepG2.2.15 cells). Details: HBV replication assay (BDNA assay), HepG2.2.15 cells; read-out: DNA EC50.
Assay type: cell-based
Experimental: HBV replication inhibition by the disclosed compounds were determined in cells infected or transfected with HBV or cells with stably integrated HBV, such as HepG2.2.15 cells (Sells et al. 1987). In this example, HepG2.2.15 cells were maintained in cell culture medium containing 10% fetal bovine serum (FBS), Geneticin, L-glutamine, penicillin and streptomycin. HepG2.2.15 cells were seeded in 96-well plates at a density of 40,000 cells/well and were treated with serially diluted compounds at a final DMSO concentration of 0.5% either alone or in combination by adding drugs in a checker box format. Cells were incubated with compounds for three days, after which medium was removed and fresh medium containing compounds was added to cells and incubated for another three days. At day 6, supernatant was removed and treated with DNase at 37° C. for 60 minutes, followed by enzyme inactivation at 75° C. for 15 minutes. Encapsidated HBV DNA was released from the virions and covalently linked HBV polymerase by incubating in lysis buffer (Affymetrix QS0010) containing 2.5 μg proteinase K at 50° C. for 40 minutes. HBV DNA was denatured by addition of 0.2 M NaOH and detected using a branched DNA (BDNA) QuantiGene assay kit according to manufacturer recommendation (Affymetrix). HBV DNA levels were also quantified using qPCR, based on amplification of encapsidated HBV DNA extraction with QuickExtraction Solution (Epicentre Biotechnologies) and amplification of HBV DNA using HBV specific PCR probes that can hybridize to HBV DNA and a fluorescently labeled probe for quantitation. In addition, cell viability of HepG2.2.15 cells incubated with test compounds alone or in combination was determined by using CellTitre-Glo reagent according to the manufacturer protocol (Promega). The mean background signal from wells containing only culture medium was subtracted from all other samples, and percent inhibition at each compound concentration was calculated by normalizing to signals from HepG2.2.15 cells treated with 0.5% DMSO using equation E1. % inhibition=(DMSOave−Xi)/DMSOave×100% E1: […]
where DMSOave is the mean signal calculated from the wells that were treated with DMSO control (0% inhibition control) and Xi is the signal measured from the individual wells. EC50 values, effective concentrations that achieved 50% inhibitory effect, were determined by non-linear fitting using Graphpad Prism software (San Diego, Calif.) and equation E2: Y=Y min+(Y max−Y min)/(1+10(Log EC50−X)×HillSlope) E2: […]
where Y represents percent inhibition values and X represents the logarithm of compound concentrations.
Selected disclosed compounds were assayed in the HBV replication assay (BDNA assay), as described above, and a representative group of these active compounds is shown in Table 7. […] In Table 7, “A” represents 1<EC50≤100; “B” represents 100<EC50≤500; “C” represents 500<EC50≤1000; and “D” represents EC50>1000.
Work on `C[C@@H]1Cc2nn3c(c2CN1C(=O)Nc1ccc(F)c(Br)c1F)C(=O)N(C)OC(CO)C3` (single isomer, unassigned) [Compound 092_E2, (4R*,9R)—N-(3-bromo-2,4-difluorophenyl)-4-(hydroxymethyl)-2,9-dimethyl-1-oxo-1,4,5,8,9,11-hexahydropyrido[4′,3′:3,4]pyrazolo[5,1-d][1,2,5]oxadiazepine-10(2H)-carboxamide] yielded an EC50 of 1 to 100 nM.
`C[C@@H]1Cc2nn3c(c2CN1C(=O)Nc1cc(Br)c(F)cc1F)C(=O)N(C)OC(COCC(F)F)C3` (single isomer, unassigned) [Compound 108_D1, (4S*,9R)—N-(5-bromo-2,4-difluorophenyl)-4-((2,2-difluoroethoxy)methyl)-2,9-dimethyl-1-oxo-1,4,5,8,9,11-hexahydropyrido[4′,3′:3,4]pyrazolo[5,1-d][1,2,5]oxadiazepine-10(2H)-carboxamide] was tested, and the EC50 was 100 to 500 nM.
For `Cc1cc(NC(=O)N2Cc3c(nn4c3C(=O)N(C)OC(CF)C4)C[C@H]2C)ccc1F` (stereo in doubt) [Compound 086_E2, (4R*,9R)—N-(4-fluoro-3-methylphenyl)-4-(fluoromethyl)-2,9-dimethyl-1-oxo-1,4,5,8,9,11-hexahydropyrido[4′,3′:3,4]pyrazolo[5,1-d][1,2,5]oxadiazepine-10(2H)-carboxamide], the EC50 was 1 to 100 nM.
With `C[C@@H]1Cc2nn3c(c2CN1C(=O)Nc1ccc(F)c(C#N)c1)C(=O)N(C)OC(CNS(C)(=O)=O)C3` (single isomer, unassigned) [Compound 178_D2, (4R*,9R)—N-(3-cyano-4-fluorophenyl)-2,9-dimethyl-4-(methylsulfonamidomethyl)-1-oxo-1,4,5,8,9,11-hexahydropyrido[4′,3′:3,4]pyrazolo[5,1-d][1,2,5]oxadiazepine-10(2H)-carboxamide] the EC50 was 1 to 100 nM.
`C[C@@H]1Cc2nn3c(c2CN1C(=O)Nc1ccc(F)c(Br)c1)C(=O)N(C)OC(CNCC(F)F)C3` (stereo in doubt) [Compound 184_D2, (4R*,9R)—N-(3-bromo-4-fluorophenyl)-4-(((2,2-difluoroethyl)amino)methyl)-2,9-dimethyl-1-oxo-1,4,5,8,9,11-hexahydropyrido[4′,3′:3,4]pyrazolo[5,1-d][1,2,5]oxadiazepine-10(2H)-carboxamide] was tested, and the EC50 was 1 to 100 nM.

Same assay, conditions: Hepatitis B virus, HepG2.2.15, HBV replication assay (BDNA assay), HepG2.2.15 cells; read-out: DNA EC50
Compound `CC(=O)NCC1Cn2nc3c(c2C(=O)N(C)O1)CN(C(=O)Nc1ccc(F)c(Br)c1F)CC3` (single isomer, unassigned) [Compound 170_E1, (S*)-4-(acetamidomethyl)-N-(3-bromo-2,4-difluorophenyl)-2-methyl-1-oxo-1,4,5,8,9,11-hexahydropyrido[4′,3′:3,4]pyrazolo[5,1-d][1,2,5]oxadiazepine-10(2H)-carboxamide] has an EC50 of 1 to 100 nM.
`CN1OC(CNC(=O)CC(F)(F)F)Cn2nc3c(c2C1=O)CN(C(=O)Nc1ccc(F)c(Cl)c1)CC3` (centres unmarked) [Compound 199, N-(3-chloro-4-fluorophenyl)-2-methyl-1-oxo-4-((3,3,3-trifluoropropanamido)methyl)-1,4,5,8,9,11-hexahydropyrido[4′,3′:3,4]pyrazolo[5,1-d][1,2,5]oxadiazepine-10(2H)-carboxamide] showed an EC50 of 1 to 100 nM.
`C[C@@H]1Cc2nn3c(c2CN1C(=O)Nc1ccc(F)c(Cl)c1F)C(=O)N(C)OC(C(=O)N(C)CC(F)F)C3` (single isomer, unassigned) [Compound 152_D1, (4S*,9R)—N10-(3-chloro-2,4-difluorophenyl)-N4-(2,2-difluoroethyl)-N4,2,9-trimethyl-1-oxo-1,4,5,8,9,11-hexahydropyrido[4′,3′:3,4]pyrazolo[5,1-d][1,2,5]oxadiazepine-4,10(2H)-dicarboxamide] gave an EC50 of 1 to 100 nM.
`CN1NCCn2nc3c(c2C1=O)CN(C(=O)Nc1ccc(F)c(Cl)c1)CC3` [Compound 216, N-(3-Chloro-4-fluoro-phenyl)-2-methyl-1-oxo-3,4,5,8,9,11-hexahydropyrido[2,3]pyrazolo[2,4-c][1,2,5]triazepine-10-carboxamide] gave an EC50 of 100 to 500 nM.
`Cc1cccc(NC(=O)N2CCc3nn4c(c3C2)C(=O)N(C)OC(CO)C4)c1` (centres unmarked) [Compound 002, 4-(hydroxymethyl)-2-methyl-1-oxo-N-(m-tolyl)-1,4,5,8,9,11-hexahydropyrido[4′,3′:3,4]pyrazolo[5,1-d][1,2,5]oxadiazepine-10(2H)-carboxamide] showed an EC50 of 1 to 100 nM.
Work on `Cc1cc(NC(=O)N2CCc3nn4c(c3C2)C(=O)N(C)OC(CO)C4)c(F)cc1F` (single isomer, unassigned) [Compound 143_E1, (S*)—N-(2,4-difluoro-5-methylphenyl)-4-(hydroxymethyl)-2-methyl-1-oxo-1,4,5,8,9,11-hexahydropyrido[4′,3′:3,4]pyrazolo[5,1-d][1,2,5]oxadiazepine-10(2H)-carboxamide] yielded an EC50 of 1 to 100 nM.
`CN1OC(CO)Cn2nc3c(c2C1=O)CN(C(=O)Nc1ccnc(Cl)c1F)CC3` (centres unmarked) [Compound 003, N-(2-chloro-3-fluoropyridin-4-yl)-4-(hydroxymethyl)-2-methyl-1-oxo-1,4,5,8,9,11-hexahydropyrido[4′,3′:3,4]pyrazolo[5,1-d][1,2,5]oxadiazepine-10(2H)-carboxamide] showed an EC50 of 100 to 500 nM.
In the case of `CN1OC(CF)Cn2nc3c(c2C1=O)CN(C(=O)Nc1cc(F)c(F)c(Cl)c1)CC3` (single isomer, unassigned) [Compound 044_E1, (S*)—N-(3-chloro-4,5-difluorophenyl)-4-(fluoromethyl)-2-methyl-1-oxo-1,4,5,8,9,11-hexahydropyrido[4′,3′:3,4]pyrazolo[5,1-d][1,2,5]oxadiazepine-10(2H)-carboxamide], the EC50 is reported as 1 to 100 nM.
`C[C@@H]1Cc2nn3c(c2CN1C(=O)Nc1cc(C(F)(F)F)ccc1F)C(=O)N(C)O[C@@H](CO)C3` (relative stereo) [Compound 157_D2, (4R*,9R)—N-[2-fluoro-5-(trifluoromethyl)phenyl]-4-(hydroxymethyl)-2,9-dimethyl-1-oxo-5,8,9,11-tetrahydro-4H-pyrido[2,3]pyrazolo[2,4-d][1,2,5]oxadiazepine-10-carboxamide] gave an EC50 of 1 to 100 nM.
In the case of `CN1OC(CNC(=O)C2CC2)Cn2nc3c(c2C1=O)CN(C(=O)Nc1ccc(F)c(Cl)c1)CC3` (centres unmarked) [Compound 198, N-(3-chloro-4-fluorophenyl)-4-(cyclopropanecarboxamidomethyl)-2-methyl-1-oxo-1,4,5,8,9,11-hexahydropyrido[4′,3′:3,4]pyrazolo[5,1-d][1,2,5]oxadiazepine-10(2H)-carboxamide], the EC50 is reported as 1 to 100 nM.
`Cc1c(F)ccc(NC(=O)N2CCc3nn4c(c3C2)C(=O)N(C)OC(CO)C4)c1F` (single isomer, unassigned) [Compound 142_E1, (S*)—N-(2,4-difluoro-3-methylphenyl)-4-(hydroxymethyl)-2-methyl-1-oxo-1,4,5,8,9,11-hexahydropyrido[4′,3′:3,4]pyrazolo[5,1-d][1,2,5]oxadiazepine-10(2H)-carboxamide] gave an EC50 of 1 to 100 nM.
`CN1OC(CS(C)(=O)=O)Cn2nc3c(c2C1=O)CN(C(=O)Nc1ccc(F)c(Cl)c1)CC3` (centres unmarked) [Compound 050, N-(3-chloro-4-fluorophenyl)-2-methyl-4-((methylsulfonyl)methyl)-1-oxo-1,4,5,8,9,11-hexahydropyrido[4′,3′:3,4]pyrazolo[5,1-d][1,2,5]oxadiazepine-10(2H)-carboxamide] was tested, and the EC50 was 1 to 100 nM.
`CN1NC(O)(C(F)(F)F)Cn2nc3c(c2C1=O)CN(C(=O)Nc1ccc(F)c(Cl)c1)CC3` (centres unmarked) [Compound 226, N-(3-chloro-4-fluorophenyl)-4-hydroxy-2-methyl-1-oxo-4-(trifluoromethyl)-1,2,3,4,5,8,9,11-octahydro-10H-pyrido[4′,3′:3,4]pyrazolo[5,1-d][1,2,5]triazepine-10-carboxamide] was tested, and the EC50 was greater than 1000 nM.
`CN1OCCn2nc3c(c2C1=O)CN(C(=O)Nc1ccc(F)c(Cl)c1)CC3` [Compound 066, N-(3-chloro-4-fluoro-phenyl)-2-methyl-1-oxo-5,8,9,11-tetrahydro-4H-pyrido[2,3]pyrazolo[2,4-c][1,2,5]oxadiazepine-10-carboxamide] showed an EC50 of 1 to 100 nM.
`CN1N=C(C(O)C2CC2)Cn2nc3c(c2C1=O)CN(C(=O)Nc1ccc(F)c(Cl)c1)CC3` (centres unmarked) [Compound 231, N-(3-chloro-4-fluorophenyl)-4-(cyclopropyl(hydroxy)methyl)-2-methyl-1-oxo-1,2,5,8,9,11-hexahydro-10H-pyrido[4′,3′:3,4]pyrazolo[5,1-d][1,2,5]triazepine-10-carboxamide] was tested, and the EC50 was 100 to 500 nM.
